{"source": "patent US6586403B1", "about": "“Treating allergic reactions and inflammatory responses with tri-and dipeptides” (Salpep Biotechnology, Inc., priority 2000, dated 2003)", "key": {"[1]": {"tested_on": "CD16b", "experiment": "PAF induced CD16b expression on human neutrophils detected by CD16a.FITC", "format": "cell-based", "conditions": "10-11M peptide; PAF 10^-9M (FIG. 11)", "experimental": "(§1) The expression of CD11b and CD16b on the surface of neutrophils are represented as the difference in the mean fluorescence intensity (MFI) measured in cells incubated in the presence of PAF alone and those incubated with 10-11M concentration of peptide and PAF. Many of the tripeptides reduced the expression of CD11b and CD16b on human neutrophils that had been stimulated with platelet activating factor (PAF; 10^-9M).\n(§2) Leukocytes were isolated from the blood of normal healthy volunteers. The blood (20 ml) was brought to a final volume of 50 ml with cold lysis buffer (155 mM NH4Cl, 10 mM KHCO3, 1 mM disodium EDTA, pH 7.4). […]\n(§3) Once isolated the neutrophils were prepared to a final concentration of […] in phosphate buffered saline (PBS). […] The supernatant is decanted off carefully and 300 μl of PBS is added to the neutrophils and cells are read with a Fluorescence Activated Cell Sorter (FACS).\n(§4) The effects of the peptides on CD11b or CD16b expression were evaluated by determining the changes in mean fluorescence intensity (MFI) of cells incubated in the presence of peptide and PAF and the those incubated in presence of PAF alone, after subtracting the background (Control) MFI expressed in cells incubated with neither PAF nor a peptide. […]"}, "[2]": {"tested_on": "sensitized rat ileum", "experiment": "Antigen induced contraction of the sensitized rat ileum (intestinal anaphylaxis in vitro)", "format": "cell-based", "conditions": "10 ig of peptide in bath, 10 min, then 1 mg OA (FIG. 1)", "experimental": "The Biological Response. The addition of antigen (OA) induced a slow tonic contraction of the intestinal (ileal) segments which peaked within 2 to 3 minutes before slowly receding to the baseline tension over 4 to 5 minutes. Urecholine (URE) produced a rapid tonic contraction that reached its maximum in 10 to 15 seconds. […] When FEG was added to the bath the OA/URE ratio was only 0.12±0.04, or 44% of the control response.\nEffects of C-terminus substitutions, N-terminus substitutions, aromatic substitution at position 1, and Asp substitution at position 2 in both L and D forms in FEG, and removal of the glycine on inhibition of intestinal anaphylaxis in vitro.\nIn this in vitro motility study analogues of the tripeptide FEG were examined for their inhibitory effects on an anaphylactic reaction provoked by antigen on intestinal segments isolated from ovalbumin sensitized rats. […] Four to six weeks following sensitization, the terminal ileum was excised and 2 cm sections were mounted in 20 ml organ baths under 0.75 g of tension and the isometric force generated by OA and urecholine (Frosst, Kirkland, QC) was measured using a Grass Force Displacement Transducer FT03 (Quincy, Mass.). […] Anti-anaphylactic properties of FEG and its analogues were determined by adding 10 ig of peptide to a bath and incubating for 10 min. […] OA contractile response was measured at peak contraction. […]"}, "[3]": {"tested_on": "CD16b", "experiment": "PAF induced CD16b expression on human neutrophils detected by CD16b.FITC", "format": "cell-based", "conditions": "10-11M peptide; PAF 10^-9M (FIG. 11)", "experimental": "as §1, §2, §3, §4"}, "[4]": {"tested_on": "Sprague Dawley rats", "experiment": "Intestinal motility disturbances (MMC disruption) caused by intravenous endotoxin", "format": "in vivo, rat", "experimental": "Intravenous injection of LPS at either 10 or 20 μg/kg disrupted the normal fasting pattern of intestinal MMCs into the characteristic fed pattern which persisted for 85±3 min (n=3) and 105±8 min (n=15), respectively. The disruptions in the MMCs developed within 20±4 min and 17±1 min for the respective 10 and 20 μg/kg doses of LPS. The 20 μg/kg dose of LPS was used for subsequent experiments.\nIntestinal Motility. Male and female Sprague Dawley rats, weighing 200-250 g were raised at the Life and Environmental Sciences Animal Resource Centre, The University of Calgary. The rats were maintained with lights on from 7:00 to 19:00 h, and were provided food and water ad libitum. For the intestinal motility experiments lipopolysaccharide (LPS; Salmonella typhosa; Sigma Chemical Co., St. Louis, […].) was injected intravenously at a dose of 20 μg/kg (Helistrom et al, 1997).\nFor motility recording rats were surgically prepared, as previously described (Mathison et al, 1998), with three bipolar jejunal electrodes under halothane anesthesia following an 18 h fast. A plastic cannula, with three pairs of Teflon-coated stainless steel bipolar electrodes, was positioned in an intrascapular region. The wires were subcutaneously tunnelled to the anterior abdominal wall, entering the peritoneal cavity through a stab incision. […] An eight-channel chart recorder (Hewlett-Packard, model 7858A) simultaneously recorded the electric signals generated by the migrating myoelectric complexes (MMCs), for three cycles before and 120 min after intravenous challenge with 20 μg/kg of LPS. […]\nChanges in intestinal motility were detected by modifications in jejunal myoelectric activity from the standard MMCs that occur in fasting animals to a totally disrupted pattern of intense, irregular myoelectric electricity that developed with the endotoxic reaction. Before and after challenge with LPS, the cycle period of MMCs was determined by measuring the time between the ends of phase III activity (the marked increase in regular phasic myoelectric and motor activity) of successive MMCs."}, "[5]": {"conditions": "doses as low as 1 μg/kg; cited from earlier work"}, "[6]": {"tested_on": "leukocytes", "conditions": "in vivo; cited from earlier work"}}, "note": "Ends that are not written are not given here."}
{"substance": "H-D-cha-D-glu-NH2 [(cha)e(NH2)]", "values": [{"measurement": "CD16b expression detected by CD16a.FITC", "setting": "[1]", "value": "reduced"}]}
{"substance": "H-D-cha-D-glu-OH [(cha)e]", "values": [{"measurement": "biological activity: inhibition of antigen induced contraction of the ileum", "setting": "[2]", "value": "active"}, {"measurement": "CD16b expression detected by CD16b.FITC", "setting": "[3]", "value": "reduced"}]}
{"substance": "H-D-phe-D-glu-Gly-NH2 [feG(NH2)]", "values": [{"measurement": "inhibition of LPS induced disruption of the MMCs, dose response", "setting": "[4]; FIG. 3b", "value": "very potent"}, {"measurement": "CD16b expression detected by CD16a.FITC", "setting": "[1]", "value": "reduced"}]}
{"substance": "TDIFEGG [SGP-T]", "values": [{"measurement": "duration of MMC disruption", "setting": "[4]; intravenous dose of 350 μg/kg", "value": "significantly reduced"}, {"measurement": "duration of LPS disrupted intestinal MMCs", "setting": "[4]; intravenous, 100 μg/kg, 20 min before LPS 20 μg/kg iv", "value": "ineffective"}, {"measurement": "lipopolysaccharide induced hypotension", "setting": "[5]", "value": "inhibits"}, {"measurement": "rolling of leukocytes on mesenteric venules induced by LPS and histamine", "setting": "[6]", "value": "prevents"}]}
